Experimental data as given in patent US12054498B2, “Heteroaromatic macrocyclic ether chemotherapeutic agents” (Nuvalent, Inc., priority 2020, dated 2024).

Key:
[1] = system: TPM3-NTRK1-wt IC50 / primary target IC50 (e.g. CD74-ROS1-wt); assay: TRKA selectivity in Ba/F3 cells (TRKA potency divided by primary target potency); format: cell-based; conditions: for TPM3-NTRK1-wt/CD74-ROS1-G2032R selectivity ratio: TRKA potency / CD74-ROS1-G2032R potency; for TPM3-NTRK1-wt/CD74-ROS1-wt selectivity ratio: TRKA potency / CD74-ROS1-wt potency; for TPM3-NTRK1-wt/EML4-ALK-L1196M-G1202R selectivity ratio: TRKA potency / EML4-ALK-L1196M-G1202R potency; for TPM3-NTRK1-wt/EML4-ALK-wt selectivity ratio: TRKA potency / EML4-ALK-wt potency
Experimental: TRKA selectivity was calculated by dividing a compound's TRKA potency by its primary target potency (e.g. TPM3-NTRK1-wt IC50/CD74-ROS1-wt IC50). Compound selectivity can be interpreted by binning ratio values: bin A for very high selectivity, ratio >30-fold; bin B for high selectivity, ratio >10-fold; bin C for moderate selectivity, ratio ≥1; and bin D for low selectivity, ratio <1. […] (nd=not determined).

ROS1-wt = molecular target: T1, ROS1-wt (Homo sapiens, UniProt P08922); assay: Biochemical kinase assay, ROS1-wt kinase domain; conditions: apparent inhibitory constant, Morrison equation; ATP 2 mM in substrate solution; read-out: ROS1-wt Ki^app
T1 construct: purchased Carna 08-163
Summary of the method: (§1)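 Kinetic read: 485 nm, 2-min intervals, 120 min, 30 °C. Substrate mix — ATP 2 mM, AQT0101 26 μM, HEPES 50 mM pH 7.5, MgCl2 10 mM. Output: Ki^app, Morrison equation.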

ALK L1196M/G1202R = molecular target: T2, ALK L1196M/G1202R (Homo sapiens, UniProt Q9UM73, G1202R/L1196M); assay: Biochemical kinase assay, ALK L1196M/G1202R kinase domain; conditions: apparent inhibitory constant, Morrison equation; ATP 2 mM in substrate solution; read-out: ALK-L1196M-G1202R Ki^app
T2 construct: purchased SignalChem A19-12NG
Summary of the method: (§2)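 Continuous fluorescence read (λ=485 nm, every 2 min, 120 min, 30° C). Substrate solution held 2 mM ATP and 26 μM AQT0101 (ROS1/ALK) or AQT0104 (TRKA). Kinase solution: ROS1-G2032R 0.5 nM, ROS1-wt 0.6 nM, TRKA 1 nM, ALK double mutant 3 nM. Initial linear rates fed a Morrison-equation fit giving Ki^app.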

[2] = molecular target: T3, Ba/F3 cells CD74-ROS1 G2032R (Homo sapiens, UniProt P08922, G2032R); assay: Ba/F3 cell proliferation assay, CD74-ROS1 G2032R; format: cell-based; conditions: 72 hours, CellTiter-Glo
T3 construct: fusion of the C-terminus of ROS1 with the N-terminus of various partner proteins; host or cells: Ba/F3 (RIKEN), retroviral pMSCV-puro; the other entry of the earlier key: CD74 (P04233, HLA class II histocompatibility antigen gamma chain)
Summary of the method: (§3)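 Viability read by CellTiter-Glo luminescence after 72 h exposure to 3-fold serial compound dilutions, four-parameter logistic fitting giving IC50.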

Ba/F3 cells TPM3-TRKA = molecular target: T4, Ba/F3 cells TPM3-TRKA (Homo sapiens, UniProt P04629); assay: Ba/F3 cell proliferation assay, TPM3-TRKA; format: cell-based; conditions: 72 hours, CellTiter-Glo, read-out: TPM3-NTRK1-wt IC50
T4 construct: host or cells: Ba/F3 (RIKEN), retroviral pMSCV-puro; the other entry of the earlier key: TPM3 (P06753, Tropomyosin alpha-3 chain)
Summary of the method: (§4)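 IC50 values come from four-parameter logistic regression of CellTiter-Glo luminescence after 72 h exposure to 3-fold serial dilutions. Cells are Ba/F3 transformed by retroviral fusion-kinase constructs, grown without IL-3 under puromycin, plated at 1,000 per well a day before dosing.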

[3] = molecular target: T5, Ba/F3 cells CD74-ROS1 wild-type (wt) (Homo sapiens, UniProt P08922); assay: Ba/F3 cell proliferation assay, CD74-ROS1 wild-type; format: cell-based; conditions: 72 hours, CellTiter-Glo
T5 construct: fusion of the C-terminus of ROS1 with the N-terminus of various partner proteins; host or cells: Ba/F3 (RIKEN), retroviral pMSCV-puro; the other entry of the earlier key: CD74 (P04233, HLA class II histocompatibility antigen gamma chain)
Summary of the method: as §3

TRKA-wt = molecular target: T6, TRKA-wt (Homo sapiens, UniProt P04629); assay: Biochemical kinase assay, TRKA-wt kinase domain; conditions: apparent inhibitory constant, Morrison equation; ATP 2 mM in substrate solution; read-out: TRKA-wt Ki^app
T6 construct: or TRKA-wt (1 nM, BPS Bio, 40280) kinase domains in buffer; purchased BPS Bio 40280
Summary of the method: as §2

ALK-wt = molecular target: T7, ALK-wt (Homo sapiens, UniProt Q9UM73); assay: Biochemical kinase assay, ALK-wt kinase domain; conditions: apparent inhibitory constant, Morrison equation; ATP 2 mM in substrate solution; read-out: ALK-wt Ki^app
T7 construct: purchased Carna 08-518
Summary of the method: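 Compound in DMSO added first, then substrate solution (ATP 2 mM; AQT0101 or AQT0104, 26 μM; pH 7.5 HEPES, 10 mM MgCl2), then kinase solution with enzyme at 0.5–3 nM depending on construct. Kinetic read every 2 min for 120 min at 30° C; Ki^app by Morrison regression.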

[4] = molecular target: T8, Ba/F3 cells EML4-ALK wt (variant 1) (Homo sapiens, UniProt Q9UM73); assay: Ba/F3 cell proliferation assay, EML4-ALK wt (variant 1); format: cell-based; conditions: 72 hours, CellTiter-Glo
T8 construct: echinoderm microtubule-associated protein-like 4 (EML4) gene and the ALK tyrosine kinase domain; host or cells: Ba/F3 (RIKEN), retroviral pMSCV-puro; the other entry of the earlier key: EML4 (Q9HC35, Echinoderm microtubule-associated protein-like 4)
Summary of the method: as §4

[5] = molecular target: T9, Ba/F3 cells EML4-ALK L1196M/G1202R (variant 1) (Homo sapiens, UniProt Q9UM73, G1202R/L1196M); assay: Ba/F3 cell proliferation assay, EML4-ALK L1196M/G1202R (variant 1); format: cell-based; conditions: 72 hours, CellTiter-Glo
T9 construct: echinoderm microtubule-associated protein-like 4 (EML4) gene and the ALK tyrosine kinase domain; host or cells: Ba/F3 (RIKEN), retroviral pMSCV-puro; the other entry of the earlier key: EML4 (Q9HC35, Echinoderm microtubule-associated protein-like 4)
Summary of the method: as §4

ROS1-G2032R = molecular target: T10, ROS1-G2032R (Homo sapiens, UniProt P08922, G2032R); assay: Biochemical kinase assay, ROS1-G2032R kinase domain; conditions: apparent inhibitory constant, Morrison equation; ATP 2 mM in substrate solution; read-out: ROS1-G2032R Ki^app
T10 construct: purchased SignalChem R14-12BG
Summary of the method: as §1

T5 sequence (P08922 1883-2347 limits assumed): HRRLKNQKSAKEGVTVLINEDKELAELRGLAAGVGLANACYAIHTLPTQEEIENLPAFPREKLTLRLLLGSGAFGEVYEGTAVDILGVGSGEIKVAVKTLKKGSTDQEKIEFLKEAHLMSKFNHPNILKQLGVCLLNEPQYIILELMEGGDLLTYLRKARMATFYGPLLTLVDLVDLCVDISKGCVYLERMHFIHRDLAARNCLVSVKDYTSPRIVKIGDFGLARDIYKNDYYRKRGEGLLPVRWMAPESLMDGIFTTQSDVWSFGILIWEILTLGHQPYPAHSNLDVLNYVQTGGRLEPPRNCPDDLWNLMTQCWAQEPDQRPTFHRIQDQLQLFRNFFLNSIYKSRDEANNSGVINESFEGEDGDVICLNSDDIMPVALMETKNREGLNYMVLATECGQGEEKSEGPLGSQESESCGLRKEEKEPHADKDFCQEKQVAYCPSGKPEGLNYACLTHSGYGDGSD
T9 sequence (Q9UM73 with tags, fused parts or gaps L1196M/G1202R): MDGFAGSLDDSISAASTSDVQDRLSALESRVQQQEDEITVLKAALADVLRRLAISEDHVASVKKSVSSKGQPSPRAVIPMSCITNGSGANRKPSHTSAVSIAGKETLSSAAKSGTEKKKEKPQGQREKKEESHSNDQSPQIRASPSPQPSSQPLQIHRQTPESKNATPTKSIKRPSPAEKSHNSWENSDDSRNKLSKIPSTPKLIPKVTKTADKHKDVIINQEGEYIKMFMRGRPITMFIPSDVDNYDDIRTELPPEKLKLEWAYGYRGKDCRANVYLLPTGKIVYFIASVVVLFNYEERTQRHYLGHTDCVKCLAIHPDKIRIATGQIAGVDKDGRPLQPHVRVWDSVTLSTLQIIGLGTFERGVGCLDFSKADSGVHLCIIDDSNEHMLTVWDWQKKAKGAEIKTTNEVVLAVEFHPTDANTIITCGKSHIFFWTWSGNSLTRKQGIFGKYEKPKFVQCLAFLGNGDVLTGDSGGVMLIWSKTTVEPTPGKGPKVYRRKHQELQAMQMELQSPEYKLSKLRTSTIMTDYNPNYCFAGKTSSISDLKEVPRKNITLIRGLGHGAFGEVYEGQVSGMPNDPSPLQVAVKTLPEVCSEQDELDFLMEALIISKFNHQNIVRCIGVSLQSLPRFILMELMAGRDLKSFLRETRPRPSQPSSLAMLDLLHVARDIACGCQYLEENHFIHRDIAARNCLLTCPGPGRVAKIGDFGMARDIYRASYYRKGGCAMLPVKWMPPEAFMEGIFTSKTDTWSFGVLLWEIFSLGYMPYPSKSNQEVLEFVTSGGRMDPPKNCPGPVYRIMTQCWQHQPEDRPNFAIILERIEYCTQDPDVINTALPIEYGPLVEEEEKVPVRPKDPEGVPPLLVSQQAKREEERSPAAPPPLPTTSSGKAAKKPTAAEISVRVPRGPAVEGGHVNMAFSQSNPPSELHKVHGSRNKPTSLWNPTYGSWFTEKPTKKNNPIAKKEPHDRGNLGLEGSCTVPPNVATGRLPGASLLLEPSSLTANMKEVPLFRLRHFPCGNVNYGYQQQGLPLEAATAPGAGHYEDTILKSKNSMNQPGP
T8 sequence (Q9UM73 with tags, fused parts or gaps): as the sequence (Q9UM73 with tags, fused parts or gaps L1196M/G1202R) above, with M635L, R641G counted along it
T3 sequence (P08922 1883-2347 G2032R limits assumed): as the sequence (P08922 1883-2347 limits assumed) above, with G150R counted along it
T2 sequence (Q9UM73 1116-1392 L1196M/G1202R limits assumed): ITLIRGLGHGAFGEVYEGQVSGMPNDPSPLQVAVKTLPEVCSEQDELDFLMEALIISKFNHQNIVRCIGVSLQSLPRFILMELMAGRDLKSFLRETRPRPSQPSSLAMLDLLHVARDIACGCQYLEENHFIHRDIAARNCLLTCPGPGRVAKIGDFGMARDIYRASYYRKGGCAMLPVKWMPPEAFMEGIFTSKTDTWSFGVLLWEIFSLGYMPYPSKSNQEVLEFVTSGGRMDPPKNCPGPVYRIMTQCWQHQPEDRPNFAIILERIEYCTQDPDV
T4 sequence (P04629 510-796 limits assumed): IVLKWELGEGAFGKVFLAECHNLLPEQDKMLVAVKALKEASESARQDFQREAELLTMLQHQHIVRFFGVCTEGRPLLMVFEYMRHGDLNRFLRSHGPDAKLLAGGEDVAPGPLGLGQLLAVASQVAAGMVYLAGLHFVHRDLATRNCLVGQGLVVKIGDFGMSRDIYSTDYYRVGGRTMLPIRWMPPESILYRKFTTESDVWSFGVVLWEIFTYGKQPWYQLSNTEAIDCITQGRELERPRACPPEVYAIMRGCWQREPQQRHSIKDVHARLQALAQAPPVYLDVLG
T10 sequence (P08922 1945-2222 G2032R limits assumed): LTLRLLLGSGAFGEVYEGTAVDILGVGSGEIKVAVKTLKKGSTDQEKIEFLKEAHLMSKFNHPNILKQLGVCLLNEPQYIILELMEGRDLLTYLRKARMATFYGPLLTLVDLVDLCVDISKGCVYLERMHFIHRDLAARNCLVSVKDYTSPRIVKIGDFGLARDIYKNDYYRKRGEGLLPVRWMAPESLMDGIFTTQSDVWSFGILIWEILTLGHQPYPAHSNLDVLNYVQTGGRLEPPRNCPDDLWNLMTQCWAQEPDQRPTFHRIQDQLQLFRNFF
T1 sequence (P08922 1945-2222 limits assumed): as the sequence (P08922 1945-2222 G2032R limits assumed) above, with R88G counted along it
T6 sequence (P04629 510-781 limits assumed): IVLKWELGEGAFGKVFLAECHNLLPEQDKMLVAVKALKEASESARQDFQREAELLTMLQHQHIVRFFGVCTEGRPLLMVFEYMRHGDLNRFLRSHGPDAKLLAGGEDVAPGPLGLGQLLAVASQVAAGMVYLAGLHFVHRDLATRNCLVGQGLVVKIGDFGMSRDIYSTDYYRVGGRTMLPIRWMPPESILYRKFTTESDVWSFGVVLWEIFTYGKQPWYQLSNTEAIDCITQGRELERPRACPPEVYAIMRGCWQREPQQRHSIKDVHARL
T7 sequence (Q9UM73 1116-1392 limits assumed): as the sequence (Q9UM73 1116-1392 L1196M/G1202R limits assumed) above, with M81L, R87G counted along it

| SMILES | TPM3-NTRK1-wt/CD74-ROS1-G2032R selectivity ratio [1] | TPM3-NTRK1-wt/CD74-ROS1-wt selectivity ratio [1] | TPM3-NTRK1-wt/EML4-ALK-L1196M-G1202R selectivity ratio [1] | TPM3-NTRK1-wt/EML4-ALK-wt selectivity ratio [1] | Ki (ROS1-wt) [nM] | Ki (ALK L1196M/G1202R) [nM] | IC50 [2] [nM] | IC50 (Ba/F3 cells TPM3-TRKA) [nM] | IC50 [3] [nM] | Ki (TRKA-wt) [nM] | Ki (ALK-wt) [nM] | IC50 [4] [nM] | IC50 [5] [nM] | Ki (ROS1-G2032R) [nM] |
| --- | --- | --- | --- | --- | --- | --- | --- | --- | --- | --- | --- | --- | --- | --- |
| C[C@H]1Oc2cc(cnc2N)-c2c(nnn2CC2CC2)Cc2nn(C)nc2-c2ccc(F)cc21 [Example 51, (19R)-3-(cyclopropylmethyl)-16-fluoro-10,19-dimethyl-20-oxa-3,4,5,9,10,11,23-heptaazapentacyclo[19.3.1.0^2,^6.0^8,^12.0^13,^18]pentacosa-1(24),2(6),4,8,11,13,15,17,21(25),22-decaen-22-amine] | A (bin A for very high selectivity, ratio >30-fold) | A (bin A for very high selectivity, ratio >30-fold) | A (bin A for very high selectivity, ratio >30-fold) | A (bin A for very high selectivity, ratio >30-fold) | < 50 | < 50 | 0.1 to 50 | > 500 | 0.1 to 50 | > 500 | < 50 | 0.1 to 50 | 0.1 to 50 | < 50 |
| CCc1noc2c1-c1cnc(N)c(c1)O[C@H](C)c1cc(F)ccc1-c1nn(C)nc1C2 [Example 22, (19R)-3-ethyl-16-fluoro-10,19-dimethyl-5,20-dioxa-4,9,10,11,23-pentaazapentacyclo[19.3.1.0^2,^6.0^8,^12.0^13,^18]pentacosa-1(24),2(6),3,8,11,13,15,17,21(25),22-decaen-22-amine] | A (bin A for very high selectivity, ratio >30-fold) | A (bin A for very high selectivity, ratio >30-fold) | C (bin C for moderate selectivity, ratio ≥1) | B (bin B for high selectivity, ratio >10-fold) | < 50 | < 50 | 0.1 to 50 | 50 to 500 | 0.1 to 50 | 50 to 500 | < 50 | 0.1 to 50 | 50 to 500 | < 50 |
| C[C@H]1Oc2cc(cnc2N)-c2c(cnn2C2CCC2)Cn2nncc2-c2ccc(F)cc21 [Example 7, (19R)-3-cyclobutyl-16-fluoro-19-methyl-20-oxa-3,4,8,9,10,23-hexaazapentacyclo[19.3.1.0^2,^6.0^8,^12.0^13,^18]pentacosa-1(24),2(6),4,9,11,13,15,17,21(25),22-decaen-22-amine] | A (bin A for very high selectivity, ratio >30-fold) | A (bin A for very high selectivity, ratio >30-fold) | B (bin B for high selectivity, ratio >10-fold) | A (bin A for very high selectivity, ratio >30-fold) | < 50 | < 50 | 0.1 to 50 | > 500 | 0.1 to 50 | > 500 | < 50 | 0.1 to 50 | 50 to 500 | 50 to 500 |
| C[C@H]1Oc2cc(cnc2N)-c2c(C3CCC3)noc2Cn2ncnc2-c2ccc(F)cc21 [Example 52, (19R)-3-cyclobutyl-16-fluoro-19-methyl-5,20-dioxa-4,8,9,11,23-pentaazapentacyclo[19.3.1.0^2,^6.0^8,^12.0^13,^18]pentacosa-1(24),2(6),3,9,11,13,15,17,21(25),22-decaen-22-amine] | A (bin A for very high selectivity, ratio >30-fold) | A (bin A for very high selectivity, ratio >30-fold) | C (bin C for moderate selectivity, ratio ≥1) | A (bin A for very high selectivity, ratio >30-fold) | < 50 | < 50 | 0.1 to 50 | > 500 | 0.1 to 50 | > 500 | < 50 | 0.1 to 50 | 50 to 500 | < 50 |
| C[C@H]1Oc2cc(cnc2N)-c2c(CC3CC3)noc2Cc2nn(C)nc2-c2ccc(F)cc21 [Example 63, (19R)-3-(cyclopropylmethyl)-16-fluoro-10,19-dimethyl-5,20-dioxa-4,9,1 0,11,23-pentaazapentacyclo [19.3.1.0^2,^6.0^8,^12.0^13,^18]pentacosa-1(24),2(6),3,8,11,13,15,17,21(25),22-decaen-22-amine] | A (bin A for very high selectivity, ratio >30-fold) | A (bin A for very high selectivity, ratio >30-fold) | B (bin B for high selectivity, ratio >10-fold) | A (bin A for very high selectivity, ratio >30-fold) | < 50 | < 50 | 0.1 to 50 | 50 to 500 | 0.1 to 50 | > 500 | < 50 | 0.1 to 50 | 0.1 to 50 | < 50 |
| CCn1nc(C)c2c1-c1cnc(N)c(c1)O[C@H](C)c1cc(F)ccc1-c1ncnn1C2 [Example 56, (19R)-3-ethyl-16-fluoro-5,19-dimethyl-20-oxa-3,4,8,9,11,23-hexaazapentacyclo[19.3.1.0^2,^6.0^8,^12.0^13,^18]pentacosa-1(24),2(6),4,9,11,13,15,17,21(25),22-decaen-22-amine] | A (bin A for very high selectivity, ratio >30-fold) | A (bin A for very high selectivity, ratio >30-fold) | C (bin C for moderate selectivity, ratio ≥1) | B (bin B for high selectivity, ratio >10-fold) | < 50 | < 50 | 0.1 to 50 | 50 to 500 | 0.1 to 50 | 50 to 500 | < 50 | 0.1 to 50 | 50 to 500 | < 50 |
